Patent US20120129919A1, “POLYCATIONIC AMPHIPHILIC CYCLOOLIGOSACCHARIDES AND THE USE THEREOF AS MOLECULAR TRANSPORTERS” (priority 2009, published 2012)

Columns and labels:
DNA of pEGFP-N3 = experiment: Gel electrophoresis shift assay (binding/complexation of pDNA); settings: pEGFP-N3 plasmid, N/P ratios between 0 and 10, FIG. 3
Description: Plasmid pEGFP-N3, used for the preparation of the DNA complexes and the transfection assay, is a 4729-bp (base pairs) plasmid. The quantities of polycationic amphiphilic βCD derivatives used were calculated on the basis of the desired DNA concentration, 0.02 mg/ml (50 μM phosphate), the N/P ratio, the molecular weight and the number of positive charges in the selected CD derivative. The experiments were performed for N/P 5, 10, 30 and 50. The DNA was diluted in milli-Q water to a final phosphate concentration of 50 μM; subsequently, the desired quantity of CD derivative was added from a 20-mg/ml solution (1:2 of Me2SO-water). The preparation was stirred with a vortex for a few seconds and incubated for 30 minutes.
The binding capacity of the polycationic amphiphilic DNA-βCD complex was analysed by gel electrophoresis. The stock solutions of βCD derivatives were prepared in 1:2 Me2SO-water, and the DNA was dissolved in 150 mM NaCl. The DNA of pEGFP-N3 (10 μl at 0.1 μg/μl) was mixed with an equal volume of βCD derivative using N/P ratios ranging between 0 and 10, and incubated for 30 min at room temperature prior to the addition of loading buffer (2 μl). One aliquot (5 μl) of each sample was subjected to agarose gel electrophoresis (0.8% w/v) in TAE buffer (40 mM Tris-acetate, 1 mM EDTA). The electrophoresis was performed at 7 V/cm and the gels were stained with ethidium bromide following the electrophoresis. The quantification of the intensity of the bands was performed with the NIH Image software (Rasband et al. 1995. Microbeam Analysis Soc. J. 4, 137-149). A value of 100 was assigned to the intensity of the band for naked DNA.

[1] = tested on: DNA of pEGFP-N3 (DNase I digestion); experiment: DNase protection assay of pDNA complexes; settings: for protection of pDNA against degradation by DNase: pEGFP-N3 complexes, N/P=5, DNase I 45 minutes at 37° C., FIG. 4
Description: The DNA of pEGFP-N3 (10 μl at 0.1 μg/μl) was mixed with an equal volume of stock solution of βCD derivative using N/P=5, and incubated for 30 min at room temperature. 15 μl of a DNase I solution (0.1 mg/ml in 50 mM Tris-HCl, pH 8, 2000 U/mg) were added to the mixture and it was incubated for 45 minutes at 37° C. Following the digestion, 20 μl of a 10% SDS solution were added and the samples were incubated for 2 h at 85° C. Finally, one aliquot (20 μl) of each sample was subjected to agarose gel electrophoresis (0.8% w/v) in TAE buffer.

CHO-k1 cells = experiment: In vitro gene transfection of pEGFP-N3 complexes, GFP fluorescence; type: cell-based, Chinese hamster; settings: pEGFP-N3 plasmid, N/P ratios between 0.1 and 20, FIG. 5
Description: Ovarian cells of wild-type Chinese hamsters (CHO-k1; no. ATCC CCL-61) were cultured in Dulbecco's modified Eagle's medium (DMEM) supplemented with 10% (v/v) of foetal bovine serum, 2 mM glutamine plus, 100 U/ml of penicillin and […] of streptomycin. Prior to the transfection, the cells were seeded in 24 well plates and incubated for 24 h, to reach an 80%-90% cell confluence. For the transfection experiments, plasmid pEGFP-N3 (1 μg) was mixed with the corresponding CD derivative at N/P ratios ranging between 0.1 and 20, at room temperature for 20 minutes, in a final volume of 20 μl. The mixture was diluted to 0.5 ml with DMEM without serum and added to each well. The untransfected cells and the naked pEGFP-N3 were used as negative controls. As a positive control, a transfection experiment was performed using 1 μl of Lipofectamine™ 2000 (Invitrogen) and 1.0 μg of DNA, following the manufacturer's instructions. The cells were incubated with the DNA-polycationic amphiphilic βCD mixtures for 18 h; subsequently, the transfection medium was eliminated and the cells were further cultured in DMEM medium plus 10% FBS for an additional 48-h period.
The transfected cells were washed three times with PBS and 600 μl of 0.5% triton X-100 in PBS. The plates were stirred for 10 min at room temperature, the lysate was recovered and the fluorescence was quantified in a Shimadzu RF-5301PC fluorimeter with an excitation wavelength of 460 nm (5 nm) and an emission wavelength of 510 nm (10 nm). The protein concentration was measured using the Bio-Rad protein assay (Hercules, Calif., USA).

Heptakis[6(2-(4-(2,2-diaminoethylaminomethyl)-1H-1,2,3-triazole-1-yl)acetamidoethylthio)-6-deoxy-2,3-di-O-hexanoyl]cyclomaltoheptaose [Compound 17]
complexation capacity / compaction of pDNA, stability of the CD:pDNA complex (DNA of pEGFP-N3): the rigid motif was more advantageous than the flexible architecture
protection of pDNA against degradation by DNase [1]: the rigid motif was more advantageous than the flexible architecture
transfection efficiency (CHO-k1 cells): the rigid motif was more advantageous than the flexible architecture

Heptakis[6(2-(4-aminomethyl-1H-1,2,3-triazole-1-yl)acetamidoethylthio)-6-deoxy-2,3-di-O-hexanoyl]cyclomaltoheptaose [Compound 16]
complexation capacity / compaction of pDNA, stability of the CD:pDNA complex (DNA of pEGFP-N3): moderate increases
protection of pDNA against degradation by DNase [1]: moderate increases
transfection efficiency (CHO-k1 cells): moderate increases

Heptakis[6-(4-(2,2-diaminoethyl)aminomethyl)-1H-1,2,3-triazole-1-yl)-6-deoxy-2,3-di-O-myristoyl]cyclomaltoheptaose [Compound 11]
complexation capacity / compaction of pDNA, stability of the CD:pDNA complex (DNA of pEGFP-N3): did not modify the complexation efficiency
transfection efficiency (CHO-k1 cells): drastically reduced the transfection capacity

Heptakis[6-(4-(2,2-diaminoethylaminomethyl)-1H-1,2,3-triazole-1-yl)-6-deoxy-2,3-di-O-hexanoyl]cyclomaltoheptaose tetradecahydrochloride [Compound 10]
complexation capacity / compaction of pDNA, stability of the CD:pDNA complex (DNA of pEGFP-N3): stable 10:pDNA complexes
protection of pDNA against the environment ([1]; 10:pDNA complexes, N/P values greater than 4): complete protection
transfection efficiency (CHO-k1 cells): surprisingly high transfection efficiencies, analogous to those obtained using Lipofectamine™ 2000

Heptakis[6-(4-aminomethyl-1H-1,2,3-triazole-1-yl)-6-deoxy-2,3-di-O-hexanoyl]cyclomaltoheptaose heptahydrochloride [Compound 9]
complexation capacity / compaction of pDNA, stability of the CD:pDNA complex (DNA of pEGFP-N3): improved complexation capacities of pDNA as compared to non-amphiphilic analogue 18
protection of pDNA against degradation by DNase [1]: plasmid still remains accessible to DNase
transfection efficiency (CHO-k1 cells): transfection levels remained very low
